Assay [1] addresses T1, Scaffold protein ILK (Homo sapiens) (UniProt Q13418).
T1 sequence (whole entry): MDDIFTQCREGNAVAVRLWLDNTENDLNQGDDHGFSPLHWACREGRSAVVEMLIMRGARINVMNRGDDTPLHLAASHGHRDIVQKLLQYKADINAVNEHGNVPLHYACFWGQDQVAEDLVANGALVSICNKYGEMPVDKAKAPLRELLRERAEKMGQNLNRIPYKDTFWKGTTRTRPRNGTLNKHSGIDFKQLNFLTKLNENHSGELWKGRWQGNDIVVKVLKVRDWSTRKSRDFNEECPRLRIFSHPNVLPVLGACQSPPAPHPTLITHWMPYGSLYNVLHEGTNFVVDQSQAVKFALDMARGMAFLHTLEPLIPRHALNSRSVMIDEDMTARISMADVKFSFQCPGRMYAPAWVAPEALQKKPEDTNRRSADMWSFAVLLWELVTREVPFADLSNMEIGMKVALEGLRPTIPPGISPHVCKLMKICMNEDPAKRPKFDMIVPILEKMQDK
Kind of assay: Selectivity interaction (Kinase panel (KiNativ target engagement assay in Jurkat cells)) EUB0001635a ILK. In kind it is cell-based. Conditions: Selectivity number of off-targets 0.0, Selectivity number of targets 233.0, Source Knowledge https://www.sciencedirect.com/science/article/pii/S2451945619300674?via%3Dihub, at 1 µM.

In assay [2] the target is Serine/threonine-protein kinase PRP4 homolog (Homo sapiens) (UniProt Q13523). Kind of assay: Selectivity interaction (KinomeScan (DiscoverX)) EUB0000655a PRPF4. To be noted: at 10 µM.
Sequence of Serine/threonine-protein kinase PRP4 homolog (Homo sapiens) (Q13523 whole entry): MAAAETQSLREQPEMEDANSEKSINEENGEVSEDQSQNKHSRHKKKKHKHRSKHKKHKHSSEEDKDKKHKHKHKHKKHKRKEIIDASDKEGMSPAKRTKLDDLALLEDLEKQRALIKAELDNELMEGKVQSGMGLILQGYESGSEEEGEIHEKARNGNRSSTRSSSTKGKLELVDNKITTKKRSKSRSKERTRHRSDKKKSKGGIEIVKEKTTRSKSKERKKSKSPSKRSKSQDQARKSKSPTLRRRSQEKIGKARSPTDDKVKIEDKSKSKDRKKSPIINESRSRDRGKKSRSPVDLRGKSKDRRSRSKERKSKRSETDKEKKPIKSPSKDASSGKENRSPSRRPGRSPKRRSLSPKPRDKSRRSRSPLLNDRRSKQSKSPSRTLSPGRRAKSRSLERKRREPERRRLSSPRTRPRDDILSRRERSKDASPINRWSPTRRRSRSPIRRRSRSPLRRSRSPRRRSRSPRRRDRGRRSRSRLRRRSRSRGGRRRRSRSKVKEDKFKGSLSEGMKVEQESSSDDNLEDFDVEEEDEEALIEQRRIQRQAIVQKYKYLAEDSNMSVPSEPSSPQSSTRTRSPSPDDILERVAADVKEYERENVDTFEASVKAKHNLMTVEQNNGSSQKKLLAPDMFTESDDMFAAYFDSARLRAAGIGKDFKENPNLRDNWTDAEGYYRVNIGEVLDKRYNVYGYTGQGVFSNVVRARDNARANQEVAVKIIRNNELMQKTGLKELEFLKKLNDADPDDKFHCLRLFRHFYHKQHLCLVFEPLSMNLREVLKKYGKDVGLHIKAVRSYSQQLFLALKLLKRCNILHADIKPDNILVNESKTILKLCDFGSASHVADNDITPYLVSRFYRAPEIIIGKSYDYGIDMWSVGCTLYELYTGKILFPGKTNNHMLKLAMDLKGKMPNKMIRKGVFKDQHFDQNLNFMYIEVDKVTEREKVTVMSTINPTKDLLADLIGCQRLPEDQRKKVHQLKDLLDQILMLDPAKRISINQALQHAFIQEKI
Assay [3] concerns the target Mitogen-activated protein kinase kinase kinase kinase 5 (Homo sapiens) (UniProt Q9Y4K4). Kind of assay: Selectivity interaction (ActivX KiNativ screen (ex vivo kinase selectivity in human PBMCs)) EUB0001619a MAP4K5. In kind it is cell-based. Conditions: PBMC, at 1 µM.
The target in assay [4] is T2, Serine/threonine-protein kinase DCLK3 (Homo sapiens) (UniProt Q9C098).
T2 sequence (whole entry): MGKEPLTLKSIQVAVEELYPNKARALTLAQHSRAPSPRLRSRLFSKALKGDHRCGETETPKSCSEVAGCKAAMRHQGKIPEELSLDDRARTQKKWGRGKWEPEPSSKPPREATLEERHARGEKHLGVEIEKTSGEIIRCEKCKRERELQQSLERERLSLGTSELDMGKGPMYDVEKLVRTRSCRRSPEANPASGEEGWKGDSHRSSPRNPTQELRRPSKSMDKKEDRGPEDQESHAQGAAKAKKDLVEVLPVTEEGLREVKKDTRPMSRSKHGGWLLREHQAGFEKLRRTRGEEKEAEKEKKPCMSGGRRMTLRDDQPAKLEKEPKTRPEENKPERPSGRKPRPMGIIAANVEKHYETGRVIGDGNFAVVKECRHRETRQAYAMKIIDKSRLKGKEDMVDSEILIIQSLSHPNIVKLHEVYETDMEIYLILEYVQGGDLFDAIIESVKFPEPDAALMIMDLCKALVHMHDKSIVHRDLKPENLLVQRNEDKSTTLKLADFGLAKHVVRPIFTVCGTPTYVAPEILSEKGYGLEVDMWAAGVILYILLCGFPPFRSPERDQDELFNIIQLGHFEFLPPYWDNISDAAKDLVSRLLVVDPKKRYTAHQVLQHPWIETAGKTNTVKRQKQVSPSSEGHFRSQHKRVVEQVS
Put plainly: Selectivity interaction (KinomeScan (DiscoverX)) EUB0001619a DCLK3. To be noted: at 1 µM.

In assay [5] the target is Mitogen-activated protein kinase 14 (Homo sapiens, UniProt Q16539). Put plainly: Selectivity interaction (ActivX KiNativ screen (kinase selectivity in THP-1 cell lysates)) EUB0000639a MAPK14. It is filed as subcellular. Conditions: lysate, at 5 µM.
Sequence of Mitogen-activated protein kinase 14 (Q16539 whole entry): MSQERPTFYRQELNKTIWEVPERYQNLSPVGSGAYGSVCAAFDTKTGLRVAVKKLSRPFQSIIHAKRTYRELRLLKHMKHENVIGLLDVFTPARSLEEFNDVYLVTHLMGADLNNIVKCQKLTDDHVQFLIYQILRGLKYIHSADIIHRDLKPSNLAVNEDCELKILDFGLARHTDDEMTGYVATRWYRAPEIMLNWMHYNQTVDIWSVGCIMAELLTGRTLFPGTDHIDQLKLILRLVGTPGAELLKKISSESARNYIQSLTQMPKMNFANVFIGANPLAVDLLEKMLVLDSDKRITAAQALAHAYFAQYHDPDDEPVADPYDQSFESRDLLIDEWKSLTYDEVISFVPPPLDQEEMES
Assay [6] concerns the target T3, Aurora kinase A (Homo sapiens) (UniProt O14965).
T3 sequence (whole entry): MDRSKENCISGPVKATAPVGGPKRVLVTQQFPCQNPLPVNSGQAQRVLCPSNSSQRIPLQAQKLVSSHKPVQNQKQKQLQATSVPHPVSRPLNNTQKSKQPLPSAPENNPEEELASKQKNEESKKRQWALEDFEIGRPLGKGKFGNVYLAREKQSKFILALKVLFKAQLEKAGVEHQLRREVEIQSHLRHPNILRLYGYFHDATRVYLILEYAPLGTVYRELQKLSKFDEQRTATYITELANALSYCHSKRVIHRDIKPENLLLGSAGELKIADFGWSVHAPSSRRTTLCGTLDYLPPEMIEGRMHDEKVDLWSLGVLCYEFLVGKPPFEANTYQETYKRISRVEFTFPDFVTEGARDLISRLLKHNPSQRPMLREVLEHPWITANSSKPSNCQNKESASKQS
Put plainly: Selectivity interaction (ActivX KiNativ screen (kinase selectivity in THP-1 cell lysates)) EUB0000639a STK6. In kind it is subcellular. Conditions: lysate, at 1 µM.

Assay [7] concerns the target Nucleosome-remodeling factor subunit BPTF (Homo sapiens, UniProt Q12830). Kind of assay: Selectivity interaction (Human bromodomain panel (DSF assay)) EUB0000233b BPTF.
Assay [8] concerns the target T4, TGF-beta receptor type-1 (Homo sapiens) (UniProt P36897).
T4 sequence (whole entry): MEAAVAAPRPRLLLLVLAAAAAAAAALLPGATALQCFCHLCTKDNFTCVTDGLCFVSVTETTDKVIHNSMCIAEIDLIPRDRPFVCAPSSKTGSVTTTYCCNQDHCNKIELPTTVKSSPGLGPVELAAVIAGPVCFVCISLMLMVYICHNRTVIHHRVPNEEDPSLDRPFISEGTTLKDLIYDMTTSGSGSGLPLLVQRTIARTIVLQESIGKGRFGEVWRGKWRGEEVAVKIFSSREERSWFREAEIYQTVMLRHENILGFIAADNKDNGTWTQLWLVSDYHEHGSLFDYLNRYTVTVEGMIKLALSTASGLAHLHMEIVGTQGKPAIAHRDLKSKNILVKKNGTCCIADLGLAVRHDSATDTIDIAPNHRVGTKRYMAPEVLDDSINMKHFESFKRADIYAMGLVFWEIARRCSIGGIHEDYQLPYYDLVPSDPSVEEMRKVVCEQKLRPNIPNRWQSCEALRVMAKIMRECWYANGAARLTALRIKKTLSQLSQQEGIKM
Kind of assay: Selectivity interaction (KinomeScan (DiscoverX)) EUB0000618a TGFBR1. To be noted: at 10 µM.

Assay [9] concerns the target Ribosomal protein S6 kinase alpha-5 (Homo sapiens) (UniProt O75582). To be noted: at 10 µM.

The values below come from ChEMBL document CHEMBL5465560, “Selectivity Literature for EUbOPEN Chemogenomic Library” (2024).

The structures appear in SMILES notation.

Sequence of Mitogen-activated protein kinase kinase kinase kinase 5 (Homo sapiens) (Q9Y4K4 whole entry, looked up): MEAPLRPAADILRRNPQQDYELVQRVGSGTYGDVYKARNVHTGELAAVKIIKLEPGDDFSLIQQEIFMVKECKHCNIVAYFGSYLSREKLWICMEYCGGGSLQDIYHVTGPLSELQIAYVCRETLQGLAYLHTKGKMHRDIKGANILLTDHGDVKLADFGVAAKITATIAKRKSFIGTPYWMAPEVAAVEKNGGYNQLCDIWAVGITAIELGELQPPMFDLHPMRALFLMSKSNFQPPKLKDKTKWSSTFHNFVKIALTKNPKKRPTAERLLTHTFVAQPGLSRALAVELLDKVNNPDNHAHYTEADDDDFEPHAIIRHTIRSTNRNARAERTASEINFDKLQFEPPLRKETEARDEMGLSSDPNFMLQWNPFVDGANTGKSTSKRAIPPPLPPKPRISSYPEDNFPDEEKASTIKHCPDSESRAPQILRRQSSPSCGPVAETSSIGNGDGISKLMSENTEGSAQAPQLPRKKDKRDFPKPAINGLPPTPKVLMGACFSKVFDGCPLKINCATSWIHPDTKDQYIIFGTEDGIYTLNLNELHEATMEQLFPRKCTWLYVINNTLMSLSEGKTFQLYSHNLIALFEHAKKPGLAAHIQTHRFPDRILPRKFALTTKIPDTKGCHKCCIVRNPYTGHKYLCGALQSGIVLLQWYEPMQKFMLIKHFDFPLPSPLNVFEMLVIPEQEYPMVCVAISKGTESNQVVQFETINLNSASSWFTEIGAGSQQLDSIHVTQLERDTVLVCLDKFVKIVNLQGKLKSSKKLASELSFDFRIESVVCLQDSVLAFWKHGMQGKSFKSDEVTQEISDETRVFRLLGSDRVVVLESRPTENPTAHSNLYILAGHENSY
Sequence of Ribosomal protein S6 kinase alpha-5 (Homo sapiens) (O75582 whole entry, looked up): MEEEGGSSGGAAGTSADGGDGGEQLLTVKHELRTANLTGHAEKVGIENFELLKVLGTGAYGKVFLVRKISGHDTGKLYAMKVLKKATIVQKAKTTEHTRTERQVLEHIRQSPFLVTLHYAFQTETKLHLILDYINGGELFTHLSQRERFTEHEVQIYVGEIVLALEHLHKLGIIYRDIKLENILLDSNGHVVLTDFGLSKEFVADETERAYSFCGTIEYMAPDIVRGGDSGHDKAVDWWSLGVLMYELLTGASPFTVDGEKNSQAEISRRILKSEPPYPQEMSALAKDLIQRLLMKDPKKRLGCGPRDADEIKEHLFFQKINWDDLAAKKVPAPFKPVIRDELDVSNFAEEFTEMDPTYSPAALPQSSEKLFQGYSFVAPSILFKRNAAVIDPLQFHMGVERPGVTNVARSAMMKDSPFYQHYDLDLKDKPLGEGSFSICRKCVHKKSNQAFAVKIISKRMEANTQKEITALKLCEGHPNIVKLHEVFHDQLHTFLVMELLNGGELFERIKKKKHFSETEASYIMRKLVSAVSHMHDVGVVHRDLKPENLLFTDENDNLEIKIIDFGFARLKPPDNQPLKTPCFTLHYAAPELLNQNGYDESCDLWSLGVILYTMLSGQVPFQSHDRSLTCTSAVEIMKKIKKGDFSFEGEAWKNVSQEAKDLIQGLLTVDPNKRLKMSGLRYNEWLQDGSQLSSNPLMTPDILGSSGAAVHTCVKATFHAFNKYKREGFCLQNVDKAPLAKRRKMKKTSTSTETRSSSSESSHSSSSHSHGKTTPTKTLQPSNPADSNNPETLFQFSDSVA

As to `C=CC(=O)Nc1ccc(C(=O)Nc2[nH]nc3c2CN(C(=O)N[C@H](CN(C)C)c2ccccc2)C3(C)C)cc1`, in assay [1], the % of engagement is -20.3%.

In [2], `CN(C)CCOc1ccc(-c2nc(-c3ccncc3)c(-c3ccc4c(c3)CC/C4=N\O)[nH]2)cc1` displayed a % of control of 84%.

As for `N#Cc1cccc(-c2c[nH]c3ncnc(N4CCOCC4)c23)c1`, the % of inhibition in [3] was found to be 13%. The molecule further yielded a % of control in assay [4] of 100%.

Take `CC[C@@H]1[C@H](F)C(=O)N[C@@H]1COc1nccc2cc(C(N)=O)c(OC)cc12` [ZIMLOVISERTIB]: the % of inhibition in assay [5] is -3.8%; in assay [6], 17.4%.

Take `CN(C)CCCOc1ccc(-c2cc(NCCCn3cccn3)nc(S(C)(=O)=O)n2)cc1`: the dTM in [7] turned out to be 4 K.

Regarding `O[C@H]1CC[C@H](Nc2ncc3nc(Nc4c(F)cc(F)cc4F)n([C@H]4CCOC4)c3n2)CC1`, the % of control in assay [8] was determined as 100%.

`COCC(=O)NC/C=C/c1ccc2ncnc(Nc3ccc(Oc4ccc(C)nc4)c(C)c3)c2c1` [CP-724714]: the % of control in [9] was 98%.
